# Measurements: patent US20220127570A1, “IMMUNE EFFECTOR CELL AND USE THEREOF” (CAFA THERAPEUTICS LIMITED, priority 2018, published 2022)
# Key:
# [1] = system: PLC/PRF/5 subcutaneous xenograft; test: PLC/PRF/5 subcutaneous xenograft model, CAR T in combination with sorafenib; type: in vivo, NPG mice
# Method: 2) Inoculation of subcutaneous xenograft: PLC/PRF/5 cells in the logarithmic growth phase and in good growth condition were collected by Trypsin digestion and washed once with normal saline. The cell density was adjusted to 1.5×10^7/mL and 200 μL of cell suspension was injected into the subcutaneous part of the right abdomen of NPG mice using a syringe, that is, each mouse was inoculated with 3×10^6 tumor cells, and the inoculation day was the 0th day.
# 3) Injection of CAR T: On D14 days after subcutaneous inoculation of tumor cells, the average tumor volume was about 260 mm^3. CAR T cells were injected, and the injection dose: 2.0×10^6/animal. On D1-D14 days after subcutaneous inoculation of tumor cells, sorafenib was administered by gavage at a dose of 75 mg/kg, and the gavage volume was 200 ul, once a day, for 14 consecutive days, and the solvent was used as a negative control.
# [2] = cited from earlier work
structure (smiles),measurement,setting,value
CNC(=O)c1cc(Oc2ccc(NC(=O)Nc3ccc(Cl)c(C(F)(F)F)c3)cc2)ccn1 [Sorafenib],tumor inhibiting rate,"[1]; D18 after injection of CAR T, compared with UTD control group, CAR T 2.0×10^6/animal, sorafenib 75 mg/kg gavage once a day for 14 days",27.38%
same,body weight of mice compared with UTD,[1]; at the beginning of the treatment,decreased
same,body weight of mice,[1]; at the end of the treatment,restored
same,solubility in polyvinylglycerol 400 (PEG400),[2]; PEG400,soluble
same,solubility in ethanol,[2]; ethanol,slightly soluble
same,solubility in water,[2]; water,poorly soluble
